SMILES strings stand for the structures. A value given as a limit tells only on which side of the number the result lay.

The nature of this test: Antagonist activity assessed by differentiation of 1,25-D3-induced HL60 cells.
By IC50 is commonly meant the concentration at which inhibition is half-maximal. The compound `C=C1/C(=C\C=C2/CCC[C@@]3(C)C2CC[C@@H]3[C@H](C)C[C@H]2C[C@](C)(O)C(=O)N2Cc2ccc(OC)cc2)C[C@@H](O)C[C@@H]1O` (some centres not stated) gave an IC50 of 660 nM.

In the case of `C=C1/C(=C\C=C2/CCC[C@@]3(C)C2CC[C@@H]3[C@H](C)C[C@H]2C[C@](C)(O)C(=O)N2C(C)C)C[C@@H](O)C[C@@H]1O` (some centres not stated), the IC50 was more than 1000 nM.

`C=C1/C(=C\C=C2/CCC[C@]3(C)[C@@H]([C@H](C)C[C@H]4C[C@@](C)(O)C(=O)N4CCc4ccccc4)CC[C@@H]23)C[C@@H](O)C[C@@H]1O` [(3R,5S)-5-((R)-2-((1R,3aS,7aR,E)-4-((Z)-2-((3S,5R)-3,5-dihydroxy-2-methylenecyclohexylidene)ethylidene)-7a-methyloctahydro-1H-inden-1-yl)propyl)-3-hydroxy-3-methyl-1-phenethylpyrrolidin-2-one] returned an IC50 of more than 2000 nM.

Take `C=C1/C(=C\C=C2/CCC[C@]3(C)[C@@H]([C@H](C)C[C@H]4C[C@](C)(O)C(=O)N4Cc4ccccc4)CC[C@@H]23)C[C@@H](O)C[C@@H]1O` [(3S,5S)-1-benzyl-5-((R)-2-((1R,3aS,7aR)-4-(2-((3S,5R)-3,5-dihydroxy-2-methylenecyclohexylidene)ethylidene)-7a-methyl-octahydro-1H-inden-1-yl)propyl)-3-hydroxy-3-methylpyrrolidin-2-one]: the midpoint of inhibition, the IC50, lay at 700 nM.

On to `C=C1/C(=C\C=C2/CCC[C@]3(C)[C@@H]([C@H](C)C[C@H]4C[C@](C)(O)C(=O)N4CCCc4ccccc4)CC[C@@H]23)C[C@@H](O)C[C@@H]1O` [(3S,5S)-5-((R)-2-((1R,3aS,7aR)-4-(2-((3S,5R)-3,5-dihydroxy-2-methylenecyclohexylidene)ethylidene)-7a-methyl-octahydro-1H-inden-1-yl)propyl)-3-hydroxy-3-methyl-1-(3-phenylpropyl)pyrrolidin-2-one], for which the IC50 is 2200 nM.

Take `C=C1/C(=C\C=C2/CCC[C@]3(C)[C@@H]([C@H](C)C[C@H]4C[C@](C)(O)C(=O)N4CCCCc4ccccc4)CC[C@@H]23)C[C@@H](O)C[C@@H]1O` [(3S,5S)-5-((R)-2-((1R,3aS,7aR)-4-(2-((3S,5R)-3,5-dihydroxy-2-methylenecyclohexylidene)ethylidene)-7a-methyl-octahydro-1H-inden-1-yl)propyl)-3-hydroxy-3-methyl-1-(4-phenylbutyl)pyrrolidin-2-one]: the midpoint of inhibition, the IC50, lay at 390 nM.

`C=C1/C(=C\C=C2/CCC[C@]3(C)[C@@H]([C@H](C)C[C@H]4C[C@](C)(O)C(=O)N4CCc4ccccc4)CC[C@@H]23)C[C@@H](O)C[C@@H]1O` [(3S,5S)-5-((R)-2-((1R,3aS,7aR)-4-(2-((3S,5R)-3,5-dihydroxy-2-methylenecyclohexylidene)ethylidene)-7a-methyl-octahydro-1H-inden-1-yl)propyl)-3-hydroxy-3-methyl-1-phenethylpyrrolidin-2-one] returned an IC50 of 207 nM.

These data come from BindingDB's records for doi:10.1021/jm050738x (University of Tokyo, 2006).
